The record followed here is doi:10.64898/2025.12.10.692519v1 (biorxiv, 2025).

Molecules are shown by their SMILES. Like-named read-outs stand apart in the source and are kept apart here.

Test in all cases: cells
The subject of one assay is HL-60. The conditions noted are these: Homo sapiens, HL-60, 144 h.
Another assay relates to HUT-78. The following applies: Homo sapiens, HuT78, 144 h.
The test system of another assay is LnCaP. The following applies: Homo sapiens, LNCaP, 144 h, read-out: Lexibulin (CYT997).
For the next assay, the system named is HRT-18. The following applies: Homo sapiens, HRT-18, 144 h.
The test system of another assay is NOMO-1. The following applies: Homo sapiens, NOMO-1, 144 h, read-out: Lexibulin (CYT997).
The test system of a further assay is H-1299. The following applies: Homo sapiens, NCI-H1299, 144 h.
A further assay has as its system NALM-6. The following applies: Homo sapiens, NALM-6, 144 h.
A further assay deals with REC-1. The following applies: Homo sapiens, Rec1, 144 h.
The next assay has as its system HEP-2. The following applies: Homo sapiens, HEp-2, 144 h.
Another assay concerns Karpas-299. The following applies: Homo sapiens, KARPAS-299, 144 h.
Another assay deals with Tov21G. The conditions noted are these: Homo sapiens, TOV21G, 144 h, read-out: Lexibulin (CYT997).
A further assay has as its system U87-MG. The following applies: Homo sapiens, U-87 MG, 144 h.
The next assay deals with 786-O. The conditions noted are these: Homo sapiens, 786-0, 144 h, read-out: Lexibulin (CYT997).
A further assay has as its system PANC-1. The conditions noted are these: Homo sapiens, PANC-1, 144 h.
For a further assay, the system named is U-118. The following applies: 144 h.
Another assay relates to PLC-PRF5. The following applies: Homo sapiens, PLC-PRF-5, 144 h.
The next assay has as its system HGC-27. The following applies: Homo sapiens, HGC-27, 144 h.
Another assay relates to MCF-7. The conditions noted are these: Homo sapiens, MCF7, 144 h, read-out: Lexibulin (CYT997).
Another assay deals with MOLM-14. The conditions noted are these: Homo sapiens, MOLM-14, 144 h, read-out: Lexibulin (CYT997).
Another assay has as its system ACHN. The following applies: Homo sapiens, ACHN, 144 h, read-out: Lexibulin (CYT997).
The next assay concerns MDA-MB-468. The conditions noted are these: Homo sapiens, MDA-MB-468, 144 h, read-out: Lexibulin (CYT997).
For assay [1], the system named is MESSA. The conditions noted are these: Homo sapiens, MES-SA, 144 h, read-out: Lexibulin (CYT997).
The next assay has as its system PC-3. The conditions noted are these: Homo sapiens, PC-3, 144 h, read-out: Lexibulin (CYT997).
Another assay has as its system THP-1. The conditions noted are these: Homo sapiens, THP-1, 144 h, read-out: Lexibulin (CYT997).
In the next assay the test system is A-549. The following applies: Homo sapiens, A549, 144 h.
Another assay has as its system DU-145. The conditions noted are these: Homo sapiens, DU-145, 144 h.
The next assay deals with CCRF-CEM. The following applies: Homo sapiens, CCRF-CEM, 144 h.
For another assay, the system named is SW-872. The conditions noted are these: Homo sapiens, SW872, 144 h, read-out: Unesbulin (PTC-596).
The test system of another assay is A4573. The following applies: A4573, 144 h, read-out: Unesbulin (PTC-596).
In the next assay the test system is U2OS. The conditions noted are these: Homo sapiens, U2OS, 144 h, read-out: Unesbulin (PTC-596).
The next assay relates to SK-N-MC. The following applies: Homo sapiens, SK-N-MC, 144 h, read-out: Unesbulin (PTC-596).
The test system of the next assay is WEHI-164. The following applies: Mus musculus, WEHI-164, 144 h, read-out: Unesbulin (PTC-596).
Assay [2] deals with MESSA. Further details: species or system MES-SA/Mx2. The following applies: Homo sapiens, MES-SA, read-out: MES-SA.
In another assay the test system is CMK. The arrangement: species or system CHRF. The following applies: Homo sapiens, 72 h, read-out: Doxorubicin (IC50 nM).
For the next assay, the system named is CHRF. Further details: species or system CMK. The following applies: 72 h, read-out: Doxorubicin (IC50 nM).

With `CCC[C@H](Nc1nc(-c2ccc(NC(=O)NCC)c(OC)c2)ncc1C)c1cccnc1` [Lexibulin], the IC50 in the assay with HL-60 (read-out: Lexibulin (CYT997)) was determined as 8 nM; in the assay on HUT-78 (read-out: Lexibulin (CYT997)) it was 6 nM; with LnCaP, 52 nM; with HRT-18 (read-out: Lexibulin (CYT997)) it was 31 nM; in the assay with NOMO-1, 280 nM; in the assay on H-1299 (read-out: Lexibulin (CYT997)), 7 nM. Besides, the IC50 with NALM-6 (read-out: Lexibulin (CYT997)) turned out to be 9 nM; with REC-1 (read-out: Lexibulin (CYT997)) it was 10 nM; with HEP-2 (read-out: Lexibulin (CYT997)) it was 16 nM; in the assay on Karpas-299 (read-out: Lexibulin (CYT997)) it was 4 nM; in the assay with Tov21G, 13 nM; in the assay on U87-MG (read-out: Lexibulin (CYT997)), 20 nM. In addition, the IC50 was found to be 165 nM in the assay on 786-O; 13 nM with PANC-1 (read-out: Lexibulin (CYT997)); 13 nM with U-118 (read-out: Lexibulin (CYT997)); 25 nM in the assay on PLC-PRF5 (read-out: Lexibulin (CYT997)); 8 nM in the assay with HGC-27 (read-out: Lexibulin (CYT997)); 12 nM in the assay with MCF-7. Besides, the IC50 in the assay with MOLM-14 is 45 nM; with ACHN, 36 nM; in the assay with MDA-MB-468, 685 nM; in the assay on MESSA [1] it was 24 nM; in the assay on PC-3 it was 142 nM; in the assay on THP-1, 9 nM. For the same molecule, the IC50 in the assay on A-549 (read-out: Lexibulin (CYT997)) was 21 nM; in the assay on DU-145 (read-out: Lexibulin (CYT997)), 32 nM; in the assay on CCRF-CEM (read-out: Lexibulin (CYT997)) it was 8 nM.

As to `Cc1nc2ccc(F)cc2n1-c1nc(N)c(F)c(Nc2ccc(C(F)(F)F)cc2)n1` [Unesbulin], the IC50 with HL-60 (read-out: Unesbulin (PTC-596)) was found to be 48 nM; in the assay on HUT-78 (read-out: Unesbulin (PTC-596)), 20 nM; in the assay on SW-872 it was 18 nM; with HRT-18 (read-out: Unesbulin (PTC-596)), 11 nM; with H-1299 (read-out: Unesbulin (PTC-596)), 5 nM; in the assay with NALM-6 (read-out: Unesbulin (PTC-596)), 30 nM. Further, the IC50 with REC-1 (read-out: Unesbulin (PTC-596)) was 17 nM; in the assay with HEP-2 (read-out: Unesbulin (PTC-596)) it was 10 nM; with Karpas-299 (read-out: Unesbulin (PTC-596)), 34 nM; in the assay on U87-MG (read-out: Unesbulin (PTC-596)) it was 11 nM; in the assay on A4573, 21 nM; in the assay with PANC-1 (read-out: Unesbulin (PTC-596)), 21 nM. Moreover, the IC50 in the assay with U-118 (read-out: Unesbulin (PTC-596)) was determined as 33 nM; in the assay with PLC-PRF5 (read-out: Unesbulin (PTC-596)), 25 nM; in the assay with U2OS, 12 nM; with HGC-27 (read-out: Unesbulin (PTC-596)), 9 nM; in the assay on SK-N-MC, 14 nM; in the assay with WEHI-164, 31 nM. In addition, the values for the IC50 with A-549 (read-out: Unesbulin (PTC-596)), in the assay with DU-145 (read-out: Unesbulin (PTC-596)) and in the assay with CCRF-CEM (read-out: Unesbulin (PTC-596)) were 13 nM, 17 nM and 27 nM, respectively.

Take `COc1cccc2c1C(=O)c1c(O)c3c(c(O)c1C2=O)C[C@@](O)(C(=O)CO)C[C@@H]3O[C@H]1C[C@H](N)[C@H](O)[C@H](C)O1` [doxorubicin]: the IC50 with MESSA [2] was found to be 71 ± 56 nM; in the assay on CMK it was 844 nM; with CHRF it was 681 nM.
